# Results taken from PMC3125419 (Journal of acquired immune deficiency syndromes (1999), 2011).
# Read-outs that look alike come from different tables or passages of the source. Marks after values point to notes of the source that are not given here.
# What was measured:
# [1] = One-compartment model with first-order absorption and elimination; type: in vivo, human; settings: median
# clinical [2] = settings: female, human, in vivo
# [3] = female, human, in vivo
# HIV-1 RNA = assay: Plasma viral load and infant HIV infection status; type: in vivo, human; settings: for Undetectable (<20, 50, 75 or 400) plasma HIV-1 RNA, N (%): atazanavir/ritonavir-based regimen
# [4] = human, in vivo
# clinical [5] = settings: female, human, in vivo; remark: listed apart in the source
# [6] = cited from earlier work
# [7] = with tenofovir, median (range), N=19
smiles,measurement,setting,value
COC(=O)N[C@H](C(=O)N[C@@H](Cc1ccccc1)[C@@H](O)CN(Cc1ccc(-c2ccccn2)cc1)NC(=O)[C@@H](NC(=O)OC)C(C)(C)C)C(C)(C)C [Atazanavir],"CL/F, one-compartment","[1]; with tenofovir, postpartum",7.2 L/h
same,"CL/F, one-compartment","[1]; with tenofovir, second trimester",14.5 L/h
same,"CL/F, one-compartment","[1]; with tenofovir, third trimester",9.9 L/h
same,"CL/F, one-compartment","[1]; without tenofovir, postpartum",4.9 L/h
same,"CL/F, one-compartment","[1]; without tenofovir, second trimester",3.1 L/h
same,"CL/F, one-compartment","[1]; without tenofovir, third trimester",6.7 L/h
same,Kp,clinical [2],0.18
same,concentration in cord blood,clinical [2],0.16 (<0.047 – 0.42) mcg/mL
same,concentration in maternal delivery plasma,clinical [2],0.83 (0.11 - 2.36) mcg/mL
same,ratio of concentration in cord blood to that in maternal delivery plasma,clinical [2],0.18 (0.04 – 0.45)
same,Grade 3 or 4 hyperbilirubinemia,[3],14 subjects
same,Grade 3 or 4 toxicities,[3],16 subjects
same,infants HIV-uninfected,"HIV-1 RNA; 38 infants, status indeterminate for one",Thirty-seven
same,"Undetectable (<20, 50, 75 or 400) plasma HIV-1 RNA, N (%)","HIV-1 RNA; delivery, with tenofovir",17 (89%) ^‡
same,"Undetectable (<20, 50, 75 or 400) plasma HIV-1 RNA, N (%)","HIV-1 RNA; delivery, with tenofovir, listed as atazanavir",17 of 19
same,"Undetectable (<20, 50, 75 or 400) plasma HIV-1 RNA, N (%)","HIV-1 RNA; delivery, without tenofovir",11 (69%) ^†
same,"Undetectable (<20, 50, 75 or 400) plasma HIV-1 RNA, N (%)","HIV-1 RNA; delivery, without tenofovir, listed as atazanavir",11 of 16
same,"Undetectable (<20, 50, 75 or 400) plasma HIV-1 RNA, N (%)","HIV-1 RNA; postpartum, with tenofovir",14 (100%) ^++
same,"Undetectable (<20, 50, 75 or 400) plasma HIV-1 RNA, N (%)","HIV-1 RNA; postpartum, without tenofovir",8 (73%) ^+
same,"Undetectable (<20, 50, 75 or 400) plasma HIV-1 RNA, N (%)","HIV-1 RNA; third trimester, with tenofovir",15 (79%) ^§
same,"Undetectable (<20, 50, 75 or 400) plasma HIV-1 RNA, N (%)","HIV-1 RNA; third trimester, without tenofovir",13 (72%) ^**
same,Postpartum plasma HIV-1 RNA,"HIV-1 RNA; with tenofovir, median (range), N=14",<75 (<20 - <400) copies/mL
same,Delivery plasma HIV-1 RNA,HIV-1 RNA; [7],<75 (<20 – 116) copies/mL
same,third trimester plasma HIV-1 RNA,HIV-1 RNA; [7],<50 (<20 – 1630) copies/mL
same,Delivery plasma HIV-1 RNA,"HIV-1 RNA; without tenofovir, median (range), N=16",<62.5 (<50 - 29933) copies/mL
same,third trimester plasma HIV-1 RNA,"HIV-1 RNA; without tenofovir, median (range), N=18",<62.5 (<50 - 19314) copies/mL
same,additional reduction of AUC0-24 and Cmin when coadministered with tenofovir,[4]; female,25%
same,Tmax,clinical [5],4 h
same,estimated 10th percentile AUC0-24,"[6]; non-pregnant adult populations, standard dose",29400 ng·h/mL
same,mean AUC,[6]; non-pregnant historical controls taking the standard dose,57000 ng·h/mL
same,geometric mean AUC,[6]; nonpregnant HIV infected adults,46100 ng·h/mL
same,AUC,"[6]; postpartum, ref Eley, 10",57200 ng·h/mL
same,mean AUC,"[6]; postpartum, ref Ripamonti, 9",30500 ng·h/mL
same,geometric mean AUC,"[6]; third trimester, 12 women, ref Eley et al, 10",26600 ng·h/mL
CC(C)(C)NC(=O)[C@@H]1C[C@@H]2CCCC[C@@H]2CN1C[C@@H](O)[C@H](Cc1ccccc1)NC(=O)[C@H](CC(N)=O)NC(=O)c1ccc2ccccc2n1 [saquinavir],pregnant subjects achieving adequate trough concentrations,[6]; saquinavir 1200 mg/ritonavir 100 mg once daily,93%
CC(C)(C)NC(=O)[C@@H]1CN(Cc2cccnc2)CCN1C[C@@H](O)C[C@@H](Cc1ccccc1)C(=O)N[C@H]1c2ccccc2C[C@H]1O [indinavir],AUC lower during pregnancy compared to postpartum,[6]; unboosted,68%
Cc1cccc(C)c1OCC(=O)N[C@@H](Cc1ccccc1)[C@@H](O)C[C@H](Cc1ccccc1)NC(=O)[C@H](C(C)C)N1CCCNC1=O [lopinavir],AUC reduction during the third trimester,[6]; capsules at standard dosing (lopinavir 400 mg/ritonavir 100 mg twice daily),50%
CC(C)c1nc(CN(C)C(=O)N[C@H](C(=O)N[C@@H](Cc2ccccc2)C[C@H](O)[C@H](Cc2ccccc2)NC(=O)OCc2cncs2)C(C)C)cs1 [Ritonavir],Tmax,[4]; female,4 (2 – 4) hr
same,Vd/F,[4]; female,34.2 L
same,"AUC0-24, C0, Cmax and C24 during the 3rd trimester compared to postpartum",[4],decreased
same,CL/F,[4],6.8 L/h
same,Cl/F during the 3rd trimester compared to postpartum,[4],increased
same,Tmax,clinical [5],6 h
